{"source": "patent US7276248B2", "about": "“Conjugate having a cleavable linkage for use in a liposome” (ALZA Corporation, priority 1999, dated 2007)", "key": {"[1]": {"system": "M109 cells, a mouse lung carcinoma line", "test": "In vitro cytotoxicity / growth rate of M109 cells, methylene blue staining, 72 hour continuous exposure", "format": "cell-based", "conditions": "read-out: IC50 Values for M109 tumor cells after 72 hour culture with continuous exposure to formulation", "protocol": "IC50 values were taken as the drug concentration which caused a 50% inhibition of the control growth rate (IC50), as described in Example 6.\nUpon completion of the assay, the cells were fixed and evaluated using the methylene blue staining assay.\nIn the assay, 1500 M109 mouse carcinoma cells from exponentially growing cultures in 200 μl aliquots (RPMI-1640 medium+10% fetal bovine serum) were plated onto 96 well flat-bottom microtiter plates. […] For each 10-fold increase in drug concentration, four drug concentration points were tested. Each test was performed in triplicate wells and in two parallel plates. The cells were treated continuously for 72 hours.\nAfter the 72 hour treatment period, the cultures were fixed by the addition of 50 μl 2.5% glutaraldehyde to each well for 10 minutes. […] The dye was extracted with 200 μl 0.1 N HCl for 60 minutes at 37° C. and the optical density was determined using a microplate spectrophotometer.\nThe cell number determined by counting cells with a hemocytometer correlated well with the spectrophotometric absorbance. The initial cell plating density was chosen to ensure a linear relationship between cell number and absorbance at the end of the study. In each study, six wells were fixed before drug was added to determine the initial average absorbance. […]\nThe growth rate was calculated as GR=(ln 2/DT). […]"}, "[2]": {"test": "In vivo pharmacokinetics in rats after single bolus intravenous injection", "conditions": "time points greater than about 5 minutes", "protocol": "The in vivo pharmacokinetics of the liposomes containing cholesterol and the cholesterol-free liposome formulation was determined in rats.\nEight rats were randomized into treatment groups as follows:\nA single intravenous injection of the test formulation was administered as a bolus dose. Blood samples were taken from each animal at the following times after injection: 30 seconds, 15 minutes, 30 minutes, 1 hour, 2 hours, 4 hours, 8 hours, 24 hours, 48 hours, 72 hours and 96 hours. […] A 200 mM iodoacetamine solution was prepared by placing 199.3 mg of iodoacetamide in 5.1 mL of 7.5% EDTA. 15 μL of the 200 mM iodoacetamide solution was placed in each 1 μL of blood sample.\nThe final volume was adjusted to 1 mL with methanol. […] The samples were spun down at 3,000 rpm for 10 minutes at room temperature. 300 μL of supernatant was transferred to HPLC vials containing 300 μL insert for injection.\n100 μL of plasma sample was denatured with 900 μL of methanol followed by centrifugation for 10 minutes at 3,000 rpm. […]\nPeak area and retention times were determined by the PE-Nelson Turbochrom (Version 4.1) system. […] The linearity of the method was evaluated suing standard responses from six concentration levels. […] The precision and accuracy of the method were evaluated from the back-calculated concentrations of the standards as well as from the quality control samples."}}, "note": "Like-named read-outs stand apart in the source and are kept apart here."}
{"smiles": "CO[C@@]12[C@H](COC(N)=O)C3=C(C(=O)C(C)=C(N)C3=O)N1C[C@@H]1N[C@@H]12", "note": "[free MMC, mitomycin C]", "values": [{"measurement": "IC50", "setting": "[1]; Cysteine Concentration 0", "result": "0.285 ± 0.092", "unit": "µM"}, {"measurement": "IC50", "setting": "[1]; Cysteine Concentration 1000 μM", "result": "0.3 ± 0.071", "unit": "µM"}, {"measurement": "dose remaining in the blood", "setting": "[2]", "result": "Virtually none"}]}
